The numbers were not newly measured in patent publication US20240122889A1, “DRY POWDER COMPOSITIONS OF TREPROSTINIL PRODRUGS AND METHODS OF USE THEREOF” (Insmed Incorporated, priority 0001, published 2024), which cites them from elsewhere.

Structures are written as SMILES. Some results are limits rather than exact numbers.

This data set deals with conscious male guinea pigs.

As to `CCCCC[C@H](O)CC[C@@H]1[C@H]2Cc3cccc(OCC(=O)O)c3C[C@H]2C[C@H]1O` [TRE, Treprostinil], the “Threshold dose that causes cough” value (inhaled TRE given by nebulization) was 1.2 μg TRE/kg body weight. Further, the Timing of cough (nebulized, time of exposure) was at most 10 min.
